In US20080153872A1, “Bis-(Coumarin) Compounds With Anti-Inflammatory Activity” (priority 2005, published 2008):

Assays:
IL-5 = test: Inhibition of IL-5 production by ConA stimulated mouse splenocytes; type: cell-based; settings: 25 μM
Experimental: (§1) Spleen cell suspension was obtained from BALB/c mice and lymphocytes separated by gradient density centrifugation on Histopaque 1.083 on 400 g for 30 minutes. They were washed once in medium, counted and their number adjusted as 3×10^5/200 μL/well in 96 flat bottomed culture plate in RPMI supplemented with 10% fetal bovine serum. Cells were stimulated on cytokine production by adding concanavalinA (ConA) at 5 μg/mL final concentration. Unstimulated cells were cultured in medium alone. Stock solution was prepared out of testing compounds as 10 mM in DMSO. Final concentrations made in cell culture medium were tested when they had been added together with ConA. After 72 hours incubation period cell culture supernatants were collected. In each sample IL-4, IL-5, IL-10 and IFNγ were detected and quantified using enzyme linked immunosorbent assay (ELISA) specific for pointed cytokines (R&D Systems).
(§2) To calculate results, standard curve was made out of measured OD values for recombinant protein in known concentrations. Cytokine content in unknown samples was calculated out of OD values extrapolated from the standard curve.
(§3) Percentage of inhibition is calculated using formula:
(§4) % Inhibition=(1−cytokine concentration of sample/cytokine concentration of positive control)×100.

Human ERK1 = molecular target: T1, Human ERK1 (Homo sapiens, UniProt P27361); test: Human protein serine/threonine kinase, ERK1, assay; type: biochemical; settings: 10 μM
T1 construct: made in house; host or cells: Escherichia coli
Experimental: (§5) All compounds were dissolved in dimethyl sulfoxide (DMSO). Final concentration of the DMSO in all tests was 1% (v/v). Inhibition in all tests is considered preferred if it exceeds 50% at 10 μM concentration (or less).
Human ERK1 is expressed in Escherichia coli and purified. Compounds are pre-incubated in MOPS/EGTA buffer with pervanadate, DTT and γ-[^32P]-ATP with recombinant enzyme for 15 minutes at 37° C. Substrate (purified myelin basic protein, MBP) is added, followed by incubation at 37° C. for 30 minutes. Enzyme activity is measured by quantitation of [^32P]-MBP and inhibition is calculated from specific radioactivity. ERK1 is a serine/threonine kinase activated in MAPK (mitogen activated kinase) pathway. ERK1 is implicated in a high proportion of human cancers, including Hodgkin disease. ERK1 is involved in processes of cell growth, division and inflammation.

Tachykinin NK2 receptor = molecular target: T2, Tachykinin NK2 receptor (Homo sapiens, UniProt P21452); test: Human tachykinin NK2 receptor assay (SR-48968 competition); type: binding; settings: 10 μM concentration; CHO-K1, competition with SR-48968
T2 construct: expressed in transfected cells; host or cells: CHO-K1
T2 sequence (P21452 1-398): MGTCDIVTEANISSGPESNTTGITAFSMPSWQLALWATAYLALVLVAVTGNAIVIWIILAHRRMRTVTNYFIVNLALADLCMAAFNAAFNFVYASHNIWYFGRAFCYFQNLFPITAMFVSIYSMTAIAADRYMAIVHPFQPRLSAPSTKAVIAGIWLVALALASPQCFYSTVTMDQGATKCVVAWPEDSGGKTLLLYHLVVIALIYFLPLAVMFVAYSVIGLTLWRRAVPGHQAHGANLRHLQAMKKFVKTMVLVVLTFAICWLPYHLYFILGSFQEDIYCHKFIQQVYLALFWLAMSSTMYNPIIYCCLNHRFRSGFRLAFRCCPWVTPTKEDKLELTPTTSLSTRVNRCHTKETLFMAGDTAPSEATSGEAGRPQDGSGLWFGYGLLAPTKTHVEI
Experimental: as §5
Tachykinin NK2 receptor is expressed in Chinese hamster ovary cell line, clone K1 (CHO-K1). Substances and radioactive competitor (tritium labelled SR-48968) are incubated with cells in HEPES/NaOH buffer for 90 minutes at 25° C. in the presence of manganese ions. Levels of the bound SR-48968 is measured by scintillation counting, and competition is calculated from the total amount of the bound SR-48968 in treated and control samples. Tachykinin receptors are involved in physiological and pathological processes of inflammation and pain. Tachykinin NK2 has been identified as a target for intervention in asthma, GI disease, irritable bowel syndrome and pancreatitis.

Human recombinant Lck = molecular target: T3, Human recombinant Lck (Homo sapiens, UniProt P06239); test: Human protein tyrosine kinase, Lck, inhibition assay; type: biochemical; settings: 10 μM
T3 construct: made in house; host or cells: Sf21 insect cells
Experimental: as §5
Human recombinant Lck is expressed in insect Sf21 expression system and purified. Substances are pre-incubated for 15 minutes at 25° C. in HEPES buffer containing ATP, pervanadate and magnesium. Substrate (poly Glu-Tyr) is added and incubated for 60 minutes at 25° C. Activity of the enzyme is measured using phosphotyrosine (p-Tyr) specific enzyme immunoassay and inhibition is calculated from the determination of the concentration of p-Tyr. Protein tyrosine kinase, Lck, is a protein tyrosine kinase which is abundantly expressed in T-lymphocytes and is essential for T-cell receptor signal transduction and thus activation of T-lymphocytes. Lck activation stimulates recruitment and activation of ZAP-70, which is essential for T-cell activation. Inhibitors of Lck act as immunoregulatory agents in various models. Lck is implicated in T-cell leukemias and inflammation.

IL-10 = test: Inhibition of IL-10 production by ConA stimulated mouse splenocytes; type: cell-based; settings: 25 μM
Experimental: as §1, §2, §3, §4

T3 sequence (P06239 whole entry): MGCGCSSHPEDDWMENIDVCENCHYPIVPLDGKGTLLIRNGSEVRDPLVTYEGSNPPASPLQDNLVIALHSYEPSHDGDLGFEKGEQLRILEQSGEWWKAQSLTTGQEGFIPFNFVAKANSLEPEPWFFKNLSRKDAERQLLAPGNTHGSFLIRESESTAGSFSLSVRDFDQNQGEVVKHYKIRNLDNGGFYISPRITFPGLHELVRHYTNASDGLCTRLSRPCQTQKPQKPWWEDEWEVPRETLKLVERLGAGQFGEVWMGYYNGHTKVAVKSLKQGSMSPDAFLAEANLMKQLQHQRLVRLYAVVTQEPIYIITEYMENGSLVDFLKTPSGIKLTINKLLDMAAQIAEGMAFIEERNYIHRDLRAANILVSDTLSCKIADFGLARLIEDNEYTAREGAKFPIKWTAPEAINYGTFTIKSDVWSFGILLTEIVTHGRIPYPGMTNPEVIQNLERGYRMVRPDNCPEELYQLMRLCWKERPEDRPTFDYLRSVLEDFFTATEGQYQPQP
T1 sequence (P27361 whole entry): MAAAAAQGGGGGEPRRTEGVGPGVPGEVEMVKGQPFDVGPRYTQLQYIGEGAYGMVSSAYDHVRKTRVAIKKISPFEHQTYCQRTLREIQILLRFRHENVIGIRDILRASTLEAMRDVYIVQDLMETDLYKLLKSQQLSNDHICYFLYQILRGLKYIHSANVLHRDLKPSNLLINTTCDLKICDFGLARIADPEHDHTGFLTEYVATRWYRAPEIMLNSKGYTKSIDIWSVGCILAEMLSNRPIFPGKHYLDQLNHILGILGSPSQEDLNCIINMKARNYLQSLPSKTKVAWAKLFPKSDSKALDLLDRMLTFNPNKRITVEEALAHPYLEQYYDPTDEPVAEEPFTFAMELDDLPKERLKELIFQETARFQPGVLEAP

Structure (SMILES) | inhibition of IL-5 production (IL-5) | inhibition of human ERK1 activity (Human ERK1) | inhibition of NK2 activity (Tachykinin NK2 receptor) | inhibition of human Lck activity (Human recombinant Lck) | inhibition of IL-10 production (IL-10)
CC(=O)C(c1c(O)c2cccc(C(C)C)c2oc1=O)c1c(O)c2cccc(C(C)C)c2oc1=O [Example 19] | significantly inhibited | significantly inhibited | significant inhibition | significantly inhibited | 
CC(C)c1cccc2c(O)c(C(CO)c3c(O)c4cccc(C(C)C)c4oc3=O)c(=O)oc12 [Example 30] | significantly inhibited |  |  |  | significantly inhibited
CC(C)c1cccc2c(O)c(C(C(=O)OCCO)c3c(O)c4cccc(C(C)C)c4oc3=O)c(=O)oc12 [Example 50] |  |  | significant inhibition |  | 
